We go through 27 compounds from US9453014B2, “Cyclic amide derivatives as inhibitors of 11-β-hydroxysteroid dehydrogenase and uses thereof” (CONNEXIOS LIFE SCIENCES PVT. LTD., priority 2011, dated 2016).

By IC50 is commonly meant the concentration that gives 50% inhibition.

This experiment deals with T1, human full length HSD11 β 1 (Homo sapiens, UniProt P28845).
T1 construct: transient expression of human full length HSD11 β 1 expression vector; host or cells: CHO cells (transient transfection)
T1 sequence (P28845 whole entry): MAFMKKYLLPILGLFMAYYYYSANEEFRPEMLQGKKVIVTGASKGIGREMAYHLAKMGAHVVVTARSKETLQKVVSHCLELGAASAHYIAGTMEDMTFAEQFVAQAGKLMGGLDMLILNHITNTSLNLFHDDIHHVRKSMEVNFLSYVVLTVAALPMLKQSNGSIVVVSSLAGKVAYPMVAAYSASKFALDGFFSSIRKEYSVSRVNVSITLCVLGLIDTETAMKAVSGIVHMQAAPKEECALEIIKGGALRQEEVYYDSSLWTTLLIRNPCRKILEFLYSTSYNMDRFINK
The experiment in a line: In Vitro HSD11β1 Inhibition Assay. Type of experiment: cell-based. The following applies: CHO cells transiently expressing human HSD11β1; 200 nM cortisone+500 uM NADPH overnight; cortisone to cortisol by LC/MS-MS; read-out: 11βHSD1 (IC50). As for the experimental part: In Vitro HSD11β1 Inhibition Assay:
CHO cells were maintained in Dulbecco's modified Eagle's medium/nutrient mixture F-12 containing 5% fetal bovine serum (v/v) and 2 mM glutamine. Cells were cultured at 37° C. with 5% CO2. For transient expression of human full length HSD11 β 1 expression vector (OriGene Technologies), cells were seeded at a density of 2×10^5 cells/well in a 6-well plate. Transfection was done using Turbofectin8 reagent (OriGene Technologies), according to the protocol provided with the reagent. After 24 hours post-transfection, cells were trypsinized and pooled together before they were re-seeding to 96-well plate at a density of 40000 cells/well. 24 hours after re-seeding, cells were incubated with 200 nM cortisone+500 uM NADPH (or along with small molecule inhibitors) overnight. The enzymatic activity or inhibition of enzyme activity was measured by estimating the conversion of cortisone to cortisol by LC/MS-MS method. The IC50 in nM was calculated from an 8 point log scale of concentration versus inhibition.
For the compound `CC1CCN(C(=O)CCc2c[nH]c3ccccc23)C2CCCCC12` (stereo not drawn) [Compound 12, 3-(1H-indol-3-yl)-1-(4-methyloctahydroquinolin-1(2H)-yl)propan-1-one], the IC50 was more than 0.25 µM. Take `COCn1cc(C(C)CC(=O)N2CCCC3C(C(=O)O)CCCC32)c2c(C3CC3)cccc21` (stereo not drawn) [Compound 242, 1-{3-[4-cyclopropyl-1-(methoxymethyl)-1H-indol-3-yl]butanoyl}decahydroquinoline-5-carboxylic acid]: the IC50 is more than 0.25 µM. `CC(CC(=O)N1CCCC2(CO)CCCCC12)c1c[nH]c2ccccc12` (stereo not drawn) [Example 131, 1-[4a-(hydroxymethyl)octahydroquinolin-1(2H)-yl]-3-(1H-indol-3-yl)butan-1-one]: the IC50 is more than 0.25 µM.

In the case of `CC(CC(=O)N1CCCC2C(C(=O)O)CCCC21)c1c[nH]c2cccc(-c3ccco3)c12` (stereo not drawn) [Compound 221, 1-{3-[4-(furan-2-yl)-1H-indol-3-yl]butanoyl}decahydroquinoline-5-carboxylic acid], the 50% inhibitory concentration (IC50) is less than 0.1 µM. Regarding `CC(CC(=O)N1CCCC2CCCCC21)c1c[nH]c2cccc(N3CCC(C(=O)O)CC3)c12` (stereo not drawn) [Compound 202, 1-{3-[4-(octahydroquinolin-1(2H)-yl)-4-oxobutan-2-yl]-1H-indol-4-yl}piperidine-4-carboxylic acid], the half-maximal inhibitory concentration (IC50) is more than 0.25 µM. In the case of `O=C(CCc1nc2ccccc2s1)N1CCO[C@@H]2CCCC[C@H]21` (relative stereo) [Example 79, 3-(1,3-benzothiazol-2-yl)-1-[trans-(4a,8a)-octahydro-4H-1,4-benzoxazin-4-yl]propan-1-one], the 50% inhibitory concentration (IC50) is more than 0.25 µM. Consider `CC(CC(=O)N1CCCC2C(C(=O)O)CCCC21)c1c[nH]c2cccc(C3CC3)c12` (stereo not drawn) [Compound 190, 1-[3-(4-cyclopropyl-1H-Indol-3-yl)butanoyl]decahydroquinoline-5-carboxylic acid], for which the IC50 was less than 0.1 µM. On to `CC(CC(=O)N1CCC(O)C2CCCCC21)c1c[nH]c2ccccc12` (stereo not drawn) [Example 106, 1-(4-hydroxyoctahydroquinolin-1(2H)-yl)-3-(1H-indol-3-yl)butan-1-one], for which the half-maximal inhibitory concentration (IC50) was more than 0.25 µM. Take `Cc1cccc2c1c(CCC(=O)N1CCO[C@@H]3CCCC[C@H]31)cn2C` (single isomer, unassigned) [Compound 62, 3-(1,4-dimethyl-1H-indol-3-yl)-1-[(trans-4a,8a)-octahydro-4H-1,4-benzoxazin-4-yl]propan-1-one]: the half-inhibitory concentration (IC50) was more than 0.25 µM. Regarding `CC(C)C(CC(=O)N1CCOC2CCCCC21)c1cn(C)c2ccccc12` (stereo not drawn) [Example 134, 4-methyl-3-(1-methyl-1H-indol-3-yl)-1-(octahydro-4H-1,4-benzoxazin-4-yl)pentan-1-one], the IC50 is more than 0.25 µM. Turning to `O=C(O)C1CCC2C(CCCN2C(=O)CC(c2ccccc2)c2c[nH]c3cccc(F)c23)C1` (stereo not drawn) [Example 186, 1-[3-(4-fluoro-1H-indol-3-yl)-3-phenylpropanoyl]decahydroquinoline-6-carboxylic acid], the 50% inhibitory concentration (IC50) was less than 0.1 µM. With `O=C(O)C1CCCC2C1CCCN2C(=O)CC(c1ccccc1)c1c[nH]c2cccc(F)c12` (stereo not drawn) [Example 188, 1-[3-(4-fluoro-1H-indol-3-yl)-3-phenylpropanoyl]decahydroquinoline-5-carboxylic acid], the IC50 was less than 0.1 µM.

`O=C(CSc1nc2ccccc2s1)N1CCCC2CCCCC21` (stereo not drawn) [Compound 73, 2-(1,3-benzothiazol-2-ylsulfanyl)-1-(octahydroquinolin-1(2H)-yl)ethanone]: the half-inhibitory concentration (IC50) was more than 0.25 µM. Regarding `CC(CC(=O)N1CCCC2(C(=O)O)CCCCC12)c1c[nH]c2cccc(Cl)c12` (stereo not drawn) [Example 129, 1-[3-(4-chloro-1H-indol-3-yl)butanoyl]octahydroquinoline-4a(2H)-carboxylic acid], the half-inhibitory concentration (IC50) is more than 0.25 µM. For the compound `CC(CC(=O)N1CCCC2C(C(=O)O)CCCC21)c1cn(C)c2cccc(-c3ccc(F)o3)c12` (stereo not drawn) [Compound 263, 1-{3-[4-(5-fluorofuran-2-yl)-1-methyl-1H-indol-3-yl]butanoyl}decahydroquinoline-5-carboxylic acid], the IC50 was less than 0.1 µM. In the case of `CC(C)C(CC(=O)N1CCCC2CCCCC21)c1c[nH]c2ccccc12` (single isomer, unassigned) [Example 117, 3-(1H-indol-3-yl)-4-methyl-1-(octahydroquinolin-1(2H)-yl)pentan-1-one], the half-inhibitory concentration (IC50) was less than 0.1 µM. As to `O=C(O)C1CCC2CCCCC2N1C(=O)CC(c1ccccc1)c1c[nH]c2cc(F)ccc12` (stereo not drawn) [Example 174, 1-[3-(6-fluoro-1H-indol-3-yl)-3-phenylpropanoyl]decahydroquinoline-2-carboxylic acid], the IC50 was more than 0.25 µM. Consider `COC(=O)C1CCN(C(=O)CC(C)c2c[nH]c3ccccc23)C2CCCCC12` (stereo not drawn) [Example 102, methyl 1-[3-(1H-indol-3-yl)butanoyl]decahydroquinoline-4-carboxylate], for which the IC50 was more than 0.25 µM. As for `O=C(O)C1CCN(C(=O)CC(c2ccc(F)cc2)c2c[nH]c3cccc(F)c23)C2CCCCC12` (single isomer, unassigned) [Compound 226, 1-[3-(4-fluoro-1H-indol-3-yl)-3-(4-fluorophenyl)propanoyl]decahydroquinoline-4-carboxylic acid], the IC50 was more than 0.25 µM. For `Cc1cccc2[nH]cc(C(C)CC(=O)N3CCCC4(O)CCCCC34)c12` (stereo not drawn) [Example 132, 1-(4a-hydroxyoctahydroquinolin-1(2H)-yl)-3-(4-methyl-1H-indol-3-yl)butan-1-one], the IC50 lay in the range of 0.15 to 0.2 µM.

With `Cc1cccc2[nH]cc(CCC(=O)N3CCOC4CCCCC43)c12` (stereo not drawn) [Compound 64, 3-(4-methyl-1H-indol-3-yl)-1-(octahydro-4H-1,4-benzoxazin-4-yl)propan-1-one], the IC50 fell in the range of 0.15 to 0.2 µM. With `Cc1cccc2c1c(CCC(=O)N1CCO[C@@H]3CCCC[C@@H]31)cn2C` (relative stereo) [Compound 66, 3-(1,4-dimethyl-1H-indol-3-yl)-1-[cis-(4a,8a)-octahydro-4H-1,4-benzoxazin-4-yl]propan-1-one], the IC50 is less than 0.1 µM.

In the case of `CC(CC(=O)N1CCCC2CCCCC21)n1nnc2c(Cl)cccc21` (stereo not drawn) [Example 166, 3-(4-chloro-1H-benzotriazol-1-yl)-1-(octahydroquinolin-1(2H)-yl)butan-1-one], the IC50 was more than 0.25 µM. Regarding `O=C(CCc1c[nH]c2cccc(F)c12)N1CCOC2CCCCC21` (stereo not drawn) [Compound 72, 3-(4-fluoro-1H-indol-3-yl)-1-(octahydro-4H-1,4-benzoxazin-4-yl)propan-1-one], the concentration for half-maximal inhibition (IC50) is less than 0.1 µM. For the compound `CC(CC(=O)N1CCCC2CCCCC21)c1c[nH]c2cccc(F)c12` (single isomer, unassigned) [Example 122, 3-(4-fluoro-1H-indol-3-yl)-1-(octahydroquinolin-1(2H)-yl)butan-1-one], the IC50 was less than 0.1 µM. On to `CC12CCCCC1N(C(=O)CCc1nc3ccccc3s1)CCC2` (stereo not drawn) [Example 78, 3-(1,3-benzothiazol-2-yl)-1-(4a-methyloctahydroquinolin-1(2H)-yl)propan-1-one], for which the IC50 was less than 0.1 µM. With `Cc1cccc2c1c(CCC(=O)N1CC(C)(C)OC3CCCCC31)cn2C` (stereo not drawn) [Compound 70, 3-(1,4-dimethyl-1H-indol-3-yl)-1-(2,2-dimethyloctahydro-4H-1,4-benzoxazin-4-yl)propan-1-one], the IC50 is more than 0.25 µM.
